Source: US9546164B2 (GENENTECH, INC., priority 2013, dated 2017)
Structures can show the parent of a compound that is named as a salt.

These compounds were tested against hNav1.7 (Homo sapiens (Human), UniProt Q15858) (assay: Tritiated sulfonamide competitive binding to membranes from cells expressing hNav1.7 and the β1 subunit). Conditions: not given.
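Also: Filter-bound radioactivity counted by liquid scintillation, nonspecific binding defined with excess unlabelled ligand, IC50 fitted to percent inhibition of specific binding.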

hNav1.7, sequence (Q15858 other isoform, or with tags, fused parts or gaps): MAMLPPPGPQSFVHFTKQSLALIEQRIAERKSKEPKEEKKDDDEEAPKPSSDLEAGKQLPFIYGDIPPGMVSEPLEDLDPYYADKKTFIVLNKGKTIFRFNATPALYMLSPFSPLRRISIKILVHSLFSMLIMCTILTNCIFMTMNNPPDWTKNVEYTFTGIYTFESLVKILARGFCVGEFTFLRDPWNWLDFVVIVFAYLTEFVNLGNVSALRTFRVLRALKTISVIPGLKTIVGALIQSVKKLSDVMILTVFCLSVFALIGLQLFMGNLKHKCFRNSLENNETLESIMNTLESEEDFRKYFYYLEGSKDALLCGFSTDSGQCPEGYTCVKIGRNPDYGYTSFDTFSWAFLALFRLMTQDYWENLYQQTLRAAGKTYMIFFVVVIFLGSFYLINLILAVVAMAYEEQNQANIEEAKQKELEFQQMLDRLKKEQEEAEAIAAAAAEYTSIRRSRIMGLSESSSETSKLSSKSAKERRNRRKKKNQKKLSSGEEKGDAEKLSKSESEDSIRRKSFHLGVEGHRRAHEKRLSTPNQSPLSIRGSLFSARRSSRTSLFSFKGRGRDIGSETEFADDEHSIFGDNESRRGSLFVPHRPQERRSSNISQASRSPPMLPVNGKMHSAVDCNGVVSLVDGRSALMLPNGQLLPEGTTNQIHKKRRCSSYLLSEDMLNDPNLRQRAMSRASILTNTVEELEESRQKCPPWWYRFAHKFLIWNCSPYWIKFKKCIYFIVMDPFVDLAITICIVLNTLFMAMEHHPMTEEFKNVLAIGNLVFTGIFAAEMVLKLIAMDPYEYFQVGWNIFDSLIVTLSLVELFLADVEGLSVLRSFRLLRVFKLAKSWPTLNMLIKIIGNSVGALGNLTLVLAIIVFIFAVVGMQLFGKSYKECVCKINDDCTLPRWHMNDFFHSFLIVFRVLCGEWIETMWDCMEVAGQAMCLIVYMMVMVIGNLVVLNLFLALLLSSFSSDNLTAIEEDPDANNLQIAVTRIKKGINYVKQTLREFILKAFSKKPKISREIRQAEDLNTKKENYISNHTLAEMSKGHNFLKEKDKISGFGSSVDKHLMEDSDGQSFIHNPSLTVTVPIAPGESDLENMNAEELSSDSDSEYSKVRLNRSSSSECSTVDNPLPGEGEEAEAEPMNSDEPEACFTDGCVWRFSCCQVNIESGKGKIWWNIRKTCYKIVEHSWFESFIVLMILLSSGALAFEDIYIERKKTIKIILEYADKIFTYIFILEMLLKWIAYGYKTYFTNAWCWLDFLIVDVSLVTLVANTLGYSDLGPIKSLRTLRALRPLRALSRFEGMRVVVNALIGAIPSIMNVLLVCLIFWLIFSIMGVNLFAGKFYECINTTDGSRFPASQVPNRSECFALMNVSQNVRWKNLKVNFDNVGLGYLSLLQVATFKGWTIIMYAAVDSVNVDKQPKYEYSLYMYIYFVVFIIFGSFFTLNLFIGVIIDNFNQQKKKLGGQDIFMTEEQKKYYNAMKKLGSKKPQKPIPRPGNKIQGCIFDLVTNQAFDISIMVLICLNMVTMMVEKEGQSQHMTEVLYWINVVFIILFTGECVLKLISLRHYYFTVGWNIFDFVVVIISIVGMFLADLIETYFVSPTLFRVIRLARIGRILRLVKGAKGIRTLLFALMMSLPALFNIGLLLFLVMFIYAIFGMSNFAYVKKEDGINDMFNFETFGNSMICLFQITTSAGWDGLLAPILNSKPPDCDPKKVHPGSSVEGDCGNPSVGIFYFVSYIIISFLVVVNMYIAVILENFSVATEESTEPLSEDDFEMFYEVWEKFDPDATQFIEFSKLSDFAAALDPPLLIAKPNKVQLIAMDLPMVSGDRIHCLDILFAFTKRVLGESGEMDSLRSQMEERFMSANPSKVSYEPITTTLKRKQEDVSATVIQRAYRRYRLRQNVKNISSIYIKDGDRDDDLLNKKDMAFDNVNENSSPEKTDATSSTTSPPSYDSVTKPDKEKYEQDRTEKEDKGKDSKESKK
hNav1.7, sequence (Q07699 19-218 partner): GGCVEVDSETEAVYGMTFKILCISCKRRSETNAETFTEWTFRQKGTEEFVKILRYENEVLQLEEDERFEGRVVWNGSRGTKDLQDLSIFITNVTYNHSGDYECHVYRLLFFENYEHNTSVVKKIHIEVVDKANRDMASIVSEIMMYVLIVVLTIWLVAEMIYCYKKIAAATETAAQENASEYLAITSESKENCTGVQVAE

Structure (SMILES)	IC50 [nM]
O=C(NS(=O)(=O)N1CCC1)c1cc(C2CC2)c(O[C@@H]2CCCN(Cc3ccc(F)cc3)C2)cc1F [Example 22]	18.2
CS(=O)(=O)NC(=O)c1cc(C2CC2)c(O[C@@H]2CCCN(Cc3cccc4c3CNC4)C2)cc1F [Example 14, (R)-5-cyclopropyl-2-fluoro-4-((1-(isoindolin-4-ylmethyl)piperidin-3-yl)oxy)-N-(methylsulfonyl)benzamide]	318
O=C(NS(=O)(=O)C1CC1)c1cc(C2CC2)c(O[C@@H]2CCCN(Cc3ccc(F)cc3F)C2)cc1F [Example 9, (R)-5-cyclopropyl-N-(cyclopropylsulfonyl)-4-((1-(2,4-difluorobenzyl)-piperidin-3-yl)oxy)-2-fluorobenzamide]	3.5
O=C(NS(=O)(=O)C1CC1)c1cc(C2CC2)c(CN2CCC(OCc3cc(Cl)cc(Cl)c3)CC2)cc1F [Example 512, 5-cyclopropyl-N-(cyclopropylsulfonyl)-4-((4-((3,5-dichlorobenzyl)oxy)piperidin-1-yl)methyl)-2-fluorobenzamide, trifluoroacetic acid salt]	16.7
CC(=O)N1CCC[C@@H](Oc2cc(F)c(C(=O)NS(=O)(=O)C3CC3)cc2C2CC2)C1 [Example 4, (R)-4-((1-acetylpiperidin-3-yl)oxy)-5-cyclopropyl-N-(cyclopropylsulfonyl)-2-fluorobenzamide]	6600

Same assay, conditions: read-out: Ligand Binding Assay; 100 pM [3H]compound, membranes with hNav1.7 and β1 subunit, 18 h, room temperature

Structure (SMILES)	IC50 [nM]
CS(=O)(=O)NC(=O)c1cc(C2CC2)c(OCC2CN([C@@H](c3ccccc3)c3ccccn3)C2)cc1F [Example 118, (S)-5-Cyclopropyl-2-fluoro-N-(methylsulfonyl)-4-((1-(phenyl(pyridin-2-yl)methyl)azetidin-3-yl)methoxy)benzamide]	417
CS(=O)(=O)NC(=O)c1cc(C2CC2)c(OCC2CN([C@H](c3ccccc3)c3ccncc3)C2)cc1F [Example 153, (R)-5-Cyclopropyl-2-fluoro-N-(methylsulfonyl)-4-((1-(phenyl(pyridin-4-yl)methyl)azetidin-3-yl)methoxy)benzamide]	439
CCS(=O)(=O)NC(=O)c1cc(C2CC2)c(OCC2CCN([C@@](C)(COC)c3cc(Cl)cc(Cl)c3)CC2)cc1F (single isomer, unassigned) [Example 204]	2.7
O=C(NS(=O)(=O)C1CC1)c1cc(C2CC2)c(OCC2CCN(C(c3ccc(Cl)cc3)c3ccc(Cl)cc3)CC2)cc1F [Example 400, 4-((1-(bis(4-chlorophenyl)methyl)piperidin-4-yl)methoxy)-5-cyclopropyl-N-(cyclopropylsulfonyl)-2-fluorobenzamide, trifluoroacetic acid salt]	2.1
CS(=O)(=O)NC(=O)c1cc(C2CC2)c(OCC2CCN(Cc3ccc(F)cc3Cl)CC2)cc1F [Example 105, 4-((1-(2-Chloro-4-fluorobenzyl)piperidin-4-yl)methoxy)-5-cyclopropyl-2-fluoro-N-(methylsulfonyl)benzamide]	16.3
CS(=O)(=O)NC(=O)c1cc(C2CC2)c(OCC2CCN(Cc3ccc(F)c(C(F)(F)F)c3)CC2)cc1F [Example 189, 5-Cyclopropyl-2-fluoro-4-((1-(4-fluoro-3-(trifluoromethyl)benzyl)piperidin-4-yl)methoxy)-N-(methylsulfonyl)benzamide]	16
COCC(c1cc(Cl)cc(Cl)c1)N1CC(COc2cc(F)c(C(=O)NS(C)(=O)=O)cc2C2CC2)C1 (stereo not drawn) [Example 91, 5-Cyclopropyl-4-((1-(1-(3,5-dichlorophenyl)-2-methoxyethyl)azetidin-3-yl)methoxy)-2-fluoro-N-(methylsulfonyl)benzamide]	14.7
CS(=O)(=O)NC(=O)c1cc(C2CC2)c(OCC2CCN(Cc3cc(Cl)cc(Cl)c3)CC2)cc1F [Example 139, 5-Cyclopropyl-4-((1-(3,5-dichlorobenzyl)piperidin-4-yl)methoxy)-2-fluoro-N-(methylsulfonyl)benzamide]	4.9
O=C(NS(=O)(=O)C1CC1)c1cc(C2CC2)c(OCC2CCN(S(=O)(=O)c3cccc(C(F)(F)F)c3)CC2)cc1F [Example 375, 5-cyclopropyl-N-(cyclopropylsulfonyl)-2-fluoro-4-((1-((3-(trifluoromethyl)phenyl)sulfonyl)piperidin-4-yl)methoxy)benzamide]	14.6
C[C@H](c1ccc(F)cc1)N1CCC[C@@H](Oc2cc(F)c(C(=O)NS(C)(=O)=O)cc2C2CC2)C1 [Example 316, 5-cyclopropyl-2-fluoro-4-(((R)-1-((R)-1-(4-fluorophenyl)ethyl)piperidin-3-yl)oxy)-N-(methylsulfonyl)benzamide]	37.2
O=C(NS(=O)(=O)C1CC1)c1cc(C2CC2)c(OCC2CCN(c3cc(C(F)(F)F)c(Cl)cn3)CC2)cc1F [Example 555, 4-((1-(5-chloro-4-(trifluoromethyl)pyridin-2-yl)piperidin-4-yl)methoxy)-5-cyclopropyl-N-(cyclopropylsulfonyl)-2-fluorobenzamide]	2.9
CS(=O)(=O)N1CCC(COc2cc(F)c(C(=O)NS(=O)(=O)C3CC3)cc2C2CC2)CC1 [Example 394, 5-cyclopropyl-N-(cyclopropylsulfonyl)-2-fluoro-4-((1-(methylsulfonyl)piperidin-4-yl)methoxy)benzamide]	6010
O=C(NS(=O)(=O)C1CC1)c1cc(C2CC2)c(OCC2CCN(Cc3cc(C(F)(F)F)cc(Cl)c3F)CC2)cc1F [Example 582, 4-((1-(3-chloro-2-fluoro-5-(trifluoromethyl)benzyl)piperidin-4-yl)methoxy)-5-cyclopropyl-N-(cyclopropylsulfonyl)-2-fluorobenzamide]	4.2
C[C@@H](c1ccc(F)cc1Cl)N1CCC(COc2cc(F)c(C(=O)NS(C)(=O)=O)cc2C2CC2)CC1 [Example 243]	11
O=C(NS(=O)(=O)CCC(F)(F)F)c1cc(C2CC2)c(OCC2CN(C(c3ccccc3)c3ccccc3)C2)cc1F [Example 63, 4-((1-benzhydrylazetidin-3-yl)methoxy)-5-cyclopropyl-2-fluoro-N-((3,3,3-trifluoropropyl)sulfonyl)benzamide]	46
CS(=O)(=O)NC(=O)c1cc(C2CC2)c(OCC2CCN(Cc3ccccc3C(F)(F)F)CC2)cc1F [Example 159, 5-Cyclopropyl-2-fluoro-N-(methylsulfonyl)-4-((1-(2-(trifluoromethyl)-benzyl)piperidin-4-yl)methoxy)benzamide]	5.42
O=C(NS(=O)(=O)C1CC1)c1cc(C2CC2)c(OCC2CCN(S(=O)(=O)c3ccc(C(F)(F)F)cc3)CC2)cc1F [Example 373, 5-cyclopropyl-N-(cyclopropylsulfonyl)-2-fluoro-4-((1-((4-(trifluoromethyl)phenyl)sulfonyl)piperidin-4-yl)methoxy)benzamide]	19.7
O=C(NS(=O)(=O)C1CC1)c1cc(C2CC2)c(OCC2CCN(Cc3ccc(Br)cc3Cl)CC2)cc1F [Example 414, 4-((1-(4-bromo-2-chlorobenzyl)piperidin-4-yl)methoxy)-5-cyclopropyl-N-(cyclopropylsulfonyl)-2-fluorobenzamide, trifluoroacetic acid salt]	3.8
CC(C)Oc1ncc(CN2CC(COc3cc(F)c(C(=O)NS(C)(=O)=O)cc3C3CC3)C2)cc1Cl [Example 83, 4-((1-((5-Chloro-6-isopropoxypyridin-3-yl)methyl)azetidin-3-yl)methoxy)-5-cyclopropyl-2-fluoro-N-(methylsulfonyl)benzamide]	59
CS(=O)(=O)NC(=O)c1cc(C2CC2)c(O[C@@H]2CCCN(Cc3cc(C(F)(F)F)cc(C4CC4)n3)C2)cc1F [Example 305, (R)-5-cyclopropyl-4-((1-((6-cyclopropyl-4-(trifluoromethyl)pyridin-2-yl)methyl)piperidin-3-yl)oxy)-2-fluoro-N-(methylsulfonyl)benzamide]	3.9
CCS(=O)(=O)NC(=O)c1cc(C2CC2)c(OCC2CCN([C@H](COC)c3ccc(Cl)cc3Cl)CC2)cc1F [Example 286, (S)-5-cyclopropyl-4-((1-(1-(2,4-dichlorophenyl)-2-methoxyethyl)piperidin-4-yl)methoxy)-N-(ethylsulfonyl)-2-fluorobenzamide]	5.4
O=C(NS(=O)(=O)C1CC1)c1cc(C2CC2)c(CN2CCC(Oc3cccc(C(F)(F)F)c3)CC2)cc1F [Example 502, trifluoroacetic acid salt]	6.8
CS(=O)(=O)NC(=O)c1cc(C2CC2)c(OCC2CN([C@H](c3ccccc3)c3cccnc3)C2)cc1F [Example 81, (R)-5-Cyclopropyl-2-fluoro-N-(methylsulfonyl)-4-((1-(phenyl(pyridin-3-yl)methyl)azetidin-3-yl)methoxy)benzamide]	630
CS(=O)(=O)NC(=O)c1cc(C2CC2)c(OCC2CCN(Cc3ccc(Cl)c(C(F)(F)F)c3)CC2)cc1F [Example 229, 4-((1-(4-Chloro-3-(trifluoromethyl)benzyl)piperidin-4-yl)methoxy)-5-cyclopropyl-2-fluoro-N-(methylsulfonyl)benzamide]	7.3
O=C(NS(=O)(=O)C1CC1)c1cc(C2CC2)c(OCC2CCN(CCC(F)(F)F)CC2)cc1F [Example 193, 5-Cyclopropyl-N-(cyclopropylsulfonyl)-2-fluoro-4-((1-(3,3,3-trifluoropropyl)piperidin-4-yl)methoxy)benzamide]	52
CS(=O)(=O)NC(=O)c1cc(C2CC2)c(O[C@@H]2CCCN(Cc3cc(C(F)(F)F)cc(Cl)c3F)C2)cc1F [Example 311, (R)-4-((1-(3-chloro-2-fluoro-5-(trifluoromethyl)benzyl)piperidin-3-yl)oxy)-5-cyclopropyl-2-fluoro-N-(methylsulfonyl)benzamide]	2.9
Cc1cc(C(=O)NS(=O)(=O)C2CC2)c(F)cc1OCC1CCN([C@@H](C)c2cc(Cl)cc(Cl)c2)CC1 [Example 359, (S)—N-(cyclopropylsulfonyl)-4-((1-(1-(3,5-dichlorophenyl)ethyl)piperidin-4-yl)methoxy)-2-fluoro-5-methylbenzamide trifluoroacetic acid salt]	11.4
CC(C)(C)c1ccc(CN2CCC[C@@H](Oc3cc(F)c(C(=O)NS(C)(=O)=O)cc3C3CC3)C2)cc1 [Example 425, (R)-4-((1-(4-(tert-butyl)benzyl)piperidin-3-yl)oxy)-5-cyclopropyl-2-fluoro-N-(methylsulfonyl)benzamide, trifluoroacetic acid salt]	2.9
